Experimental data taken from patent US20250059232A1, “PENTAPEPTIDE AND USE THEREOF” (ENSOL BIOSCIENCES INC., priority 2021, published 2025).

How the values were obtained:
PC3 = PC3 cell viability (CCK-8) in NK92 co-culture with anti-PD-1; type: cell-based, human; settings: 100 or 300 uM with 10 μg/ml anti-PD-1, 48/72 hours, P<0.05
Description: The experiment described below was performed to evaluate the tumor cell proliferation inhibitory effect of the combination treatment of the peptide of Example 1 and anti-PD-1, which is another immune checkpoint inhibitor. First, 5×10^3 cells of a human prostate cancer cell line PC3 were seeded in 96 wells and stabilized by culturing overnight. Next, 5×10^3 NK92 cells were additionally seeded, and the test cells were treated with 10 μg/ml of the anti-PD-1 and 100 or 300 uM of the peptide of Example 1 for each condition. After 48/72 hours of co-culturing, the NK92 cells were removed by washing, and the cell viability of the PC3 cells was measured by CCK-8 addition. FIG. 18 is a graph illustrating changes in PC3 cell viability over culturing time for each test group in an anticancer effect evaluation test. In FIG. 18, the x-axis represents culturing time and the y-axis represents cell viability (%).

A549 = A549 cell viability (CCK-8) in NK92 co-culture with anti-PD-L1; type: cell-based, human; settings: 300 uM with 10 ug/ml anti-PD-L1, 24/48 hours of co-culturing
Description: The experiment described below was performed to evaluate the tumor cell proliferation inhibitory effect of the combination treatment of the peptide of Example 1 and the anti-PD-L1, which is an immune checkpoint inhibitor. First, 5×10^3 cells of a human prostate cancer cell line PC3, 5×10^3 cells of a human lung cancer cell line A549 (Korean Cell Line Bank), and 1×10^4 cells of a human triple negative breast cancer cell line MDA-MB-231 (ATCC) were seeded in 96 wells and stabilized by culturing overnight. Then, the seeded cells were treated with 10 ug/ml of the anti-PD-L1 and 300 uM of the peptide of Example 1, for each condition while NK92 cells for 5×10^3 cells of each of the PC3 cell line and the MDA-MB-231 cell line and 2.5×10^3 cells of the A549 cell line were additionally seeded. After 24/48/72 hours of co-culturing (for PC3 and MDA-MB-231) and 24/48 hours of co-culturing (for A549), the NK92 cells were removed by washing, and the cancer cell viability was measured by CCK-8 addition. FIG. 15 is a graph illustrating the changes in PC3 cell viability over culturing time for each test group in an anticancer effect evaluation test. In FIG. 15, the x-axis represents culturing time and the y-axis represents cell viability (%). FIG. 16 is a graph illustrating the changes in A549 cell viability over culturing time for each test group in an anticancer effect evaluation test. […]

EL4 = EL4 cell viability (CCK-8) with doxorubicin; type: cell-based, mouse; settings: 300 uM with doxorubicin 20 nM; 24 hours; p<0.05
Description: In order to investigate the cell viability by the combined administration of doxorubicin and the peptide of Example 1 compared to the group administered with only doxorubicin, which is an anticancer chemotherapeutic agent, experiments described below were conducted. 8×10^3 Cells of the mouse lymphoma cell line EL4 (ATCC) were seeded in 96 wells, which then were treated with doxorubicin 20 nM and peptide 300 uM of Example 1 for each condition. After 24 hours of culturing, the cell viability of the EL4 cells was measured by CCK-8 addition. FIG. 11 is a graph illustrating the changes in EL4 cell viability over culturing time in an anticancer effect evaluation test. In FIG. 11, the x-axis represents culturing time and the y-axis represents cell viability (%).

MDA-MB-231 = MDA-MB-231 fat pad xenograft in athymic nude mouse: tumor volume and weight; type: in vivo, human
Description: 5×10^6 cells/head of the human triple negative breast cancer cell line MDA-MB-231 (American Type Culture Collection (ATCC)) were mixed with Matrigel and PBS (1:1). 100 ul of the mixture was injected into the right third fat pad of 7-week-old female athymic nude mouse. After the transplantation, drug administration started from an average tumor size of 80 mm^3. Paclitaxel 20 mg/kg was administered on Day 0 and on Day 1. That is, the paclitaxel 20 mg/kg was administered a total of two times. Then, the peptide of Example 1 was administered in a dose of 100 mg/kg on Day 2, Day 4, and Day 6. That is, the peptide of Example 1 was administered a total of three times. Tumor volumes were measured 3 times a week for 3 weeks after administration of the first dose. Tumor weights were measured by necropsy after the end of the experiment. For each group, ten mice were used.
Tumor volume changes over time for each group are shown in FIG. 8, and tumor weight on the eighteenth day after the administration of the first dose for each group is shown in FIG. 9. FIG. 8 is a graph illustrating the changes in tumor volume over time after sample administration in animal experimentation. In FIG. 8, the x-axis represents the number of days elapsed after the start of administration and the y-axis represents the tumor volume change (mm^3). FIG. 9 is a graph illustrating a tumor weight for each test group in animal experimentation. In FIG. 9, the x-axis represents test groups and the y-axis represents tumor weights (mg).

[1] = 100 mg/kg co-administered with paclitaxel, eighteenth day after first dose

Substance: Ac-QLHLD-OH [Example 1, acetyl-QLHLD]
- Cancer cell viability compared to the checkpoint-inhibitor-only group (PC3): significant decrease
- Cancer cell viability compared to the group treated with only anti-PD-L1 (A549): significant decrease in cancer cell viability
- Cancer cell viability compared to the group treated with only doxorubicin (EL4): significant decrease in cancer cell viability
- CR (mice in which the tumor disappeared) (MDA-MB-231; 100 mg/kg Day 2, 4, 6 after paclitaxel 20 mg/kg Day 0 and 1, ten mice): 20%
- Reduction in tumor volume compared to control group (MDA-MB-231; [1]): 48%
- Reduction in tumor weight compared to control group (MDA-MB-231; [1]): 51%
- Day on which the tumor disappeared (MDA-MB-231; co-administered with paclitaxel, two mice): 14 days
- Duration of the efficacy of a single-cycle drug treatment (MDA-MB-231; combination administration with paclitaxel): ≤ 2 weeks
